For 4 compounds, Activity and ID50 results are on record in ChEMBL document CHEMBL1132665, “Casein kinase II inhibitors isolated from two Brazilian plants Hymenaea parvifolia and Wulffia baccata” (Bioorg Med Chem Lett, 1999).

Assay [1] has as its target T1, Casein kinase II (Homo sapiens) (UniProt P67870+P68400+P19784). Description: Inhibition of CK-II-mediated 60S acidic ribosomal P protein activity at 10 uM. The assay is classed as functional.
For assay [2], the target named is T1, Casein kinase II (Homo sapiens). Description: In vitro inhibitory activity against casein kinase II was determined. It counts as protein-complex assay.

As to `C[C@@H]1CC[C@]2(C(=O)O)CC[C@]3(C)C(=CC[C@@H]4[C@]56CC[C@@](O)(OC5)C(C)(C)[C@@H]6CC[C@]43C)C2[C@H]1C` (stereo partly specified), the Activity result in assay [1] was “Dose-dependent effect”.

In assay [2], `C[C@H]1OC(O[C@H]2C(=O)c3c(O)cc(O)cc3O[C@@H]2c2ccc(O)c(O)c2)[C@H](O)[C@H](O)[C@@H]1O` (stereo partly specified) displayed an ID50 of 9 µM. Also, the Activity result in assay [1] was “Dose-dependent effect”.

In assay [2], `C[C@H]1OC(O[C@@H]2C(=O)c3c(O)cc(O)cc3O[C@H]2c2ccc(O)c(O)c2)[C@H](O)[C@H](O)[C@@H]1O` (stereo partly specified) registered an ID50 of 7 µM. In addition, the Activity entry in assay [1] was “Dose-dependent effect”.

Consider `C/C=C(/C)C(=O)O[C@@H]1CC(C)(C)CC2C3=CC[C@@H]4[C@]56CC[C@@](O)(OC5)C(C)(C)[C@@H]6CC[C@@]4(C)[C@]3(C)CC[C@]21C(=O)O` (stereo partly specified), for which the Activity result in assay [1] was “Dose-dependent effect”.
